Experimental data reported in patent publication US20030060438A1, “Oligonucleotides and other modulators of the NK-1 receptor pathway and therapeutic uses thereof” (priority 2000, published 2003).
“Also recorded” adds a separate entry of the source.

Tests used:
NK-1 receptor [1] = experiment: CFA arthritis model, joint flexibility, systemic oligonucleotide; format: in vivo, rat; settings: day 18 after CFA; 300 micro grams/kg, Q12 h, intraperitoneal
Method: Complete Freund's Adjuvant (CFA) was injected into the ankle joint of the rat and the flexibility of the affected joint was assessed on day 18 during the arthritic phase of the model. This was accomplished by measuring the difference between the extension and flexion of the affected joint. Antisense (AS) oligonucleotide (300 micro grams/kg, Q12 h, intraperitoneal) or saline was administered for 2 days prior to CFA injection and for the subsequent 18 days. […] Statistical analysis was performed using a one way ANOVA and post hoc analysis using the Dunnett's test.

NK-1 receptor [2] = experiment: Neuropathic pain model (sciatic nerve constriction), mechanical allodynia by von Frey hairs, intrathecal oligonucleotide; format: in vivo, rat
Method: Neuropathic pain is a continuous, permanent pain that results from nerve damage. One common feature of neuropathic pain is mechanical allodyina (a painful response to a non-painful stimulus). Humans with neuropathic pain cannot wear clothing on affected regions of the skin or cannot stand in air currents, because their sensitivity is so profound. Neuropathic pain was induced by constriction of the sciatic nerve. Mechanical response thresholds (grams of force) were assessed by application of von Frey hairs to the plantar surface of the ipsilateral hind paw for all groups prior to sciatic nerve constriction surgery (baseline values: B). Oligonucleotides or ASCF control ([…]) via Alzet® minipumps attached to intrathecal catheters for spinal delivery. […] Statistical analyses on mechanical thresholds were performed using the non-parametric Friedman's repeated measures analysis of variance on ranks followed by Wilcoxon signed rank test for post hoc comparisons. […] The lower panel illustrates the mechanical response thresholds are not affected in the contralateral hind paw.
Neuropathic pain was induced by constriction of the sciatic nerve. Mechanical response thresholds (grams of force) were assessed by application of von Frey hairs to the plantar surface of the ipsilateral hind paw for all groups prior to sciatic nerve constriction surgery (baseline values: B). Oligonucleotides or ASCF control ([…]) via Alzet® minipumps attached to intrathecal catheters for spinal delivery.
(§1) Neuropathic pain was induced by constriction of the sciatic nerve. Mechanical response thresholds (grams of force) were assessed by application of von Frey hairs to the plantar surface of the ipsilateral hind paw for all groups prior to sciatic nerve constriction surgery (baseline values: B). Oligonucleotides or ASCF control (artificial cerebral spinal fluid) was administered for 72 h by continuous infusion (2 micro grams/microlitres/h) via Alzet® minipumps attached to intrathecal catheters for spinal delivery starting 6 days following nerve constriction (once the mechanical allodynia was established in all groups).
as §1, with “6 days” for “72 h”, “(0.45” for “(2”, “7” for “6”

NK-1 receptor [3] = experiment: Substance P-induced thermal hyperalgesia, intrathecal oligonucleotide; format: in vivo; settings: intrathecal 75 micro grams/10 microlitres Q12h with SP
Method: The effect of intrathecal (spinal) administration of NK-1 receptor antisense oligonucleotide on substance P-induced thermal hyperalgesia is shown in FIG. 1.
Latency to thermal stimulation (baseline (B) recordings) was assessed prior to intrathecal injection of substance P (SP, indicated by the arrow in both upper and lower panels). On day 0 (before oligonucleotide treatment has begun), SP (6.7 nmol/10 microlitres) produced a decrease in thermal latency to response indicating the occurrence of hyperalgesia (exaggerated response to noxious or painful stimulation, hollow symbols on both upper and lower panels). Oligonucleotide treatment (75 micro grams/10 microlitres, Q12h for 6 days) or ASCF control (artificial cerebral spinal fluid) was commenced subsequent to assessment of substance P-induced thermal hyperalgesia on day 0. Intrathecal SP (6.7 nmol/10 microlitres, Q12h for 6 days) was administered, in addition to the oligonucleotide, to stimulate NK-1 receptor turnover. Three days after twice-daily injections of antisense (AS) were begun, SP-induced thermal hyperalgesia was attenuated (upper graph, triangles). […] Statistical analysis was performed by a two way ANOVA with time and treatment as independent measures. Time: F(6,21)=10.234, p<0.01, Treatment: F(6,21)=8.245, p<0.05.

NK-1 receptor [4] = experiment: CFA ankle joint arthritis model, ankle circumference, systemic oligonucleotide; format: in vivo, rat; settings: 300 micro grams/kg, Q12 h, intraperitoneal from 2 days prior to CFA
Method: Complete Freund's Adjuvant (CFA) injection (13.6 micro grams/25 microlitres) into the ankle joint of the rat produces two responses, an inflammatory response that begins within 24 hours and lasts approximately one week, and a later inflammatory response combined with symptoms modeling arthritis. Antisense (AS) oligonucleotide (300 micro grams/kg, Q12 h, intraperitoneal) or saline was administered for 2 days prior to CFA injection and throughout the time course of testing. In control animals CFA induces two phases of response as assessed by ankle circumference; the first is maximal at 48 h after injection and the second at day 18. […] Statistical analysis was performed using a two way ANOVA and post hoc analysis using the tukey's test.

NK-1 receptor [5] = experiment: Formalin test, intrathecal oligonucleotide; format: in vivo, rat
Method: The formalin test is similar in some ways to the capsaicin test, in that a noxious chemical is injected under the skin. In the case of formalin, however, this produces nociceptive behavior lasting up to one hour, and thus represents a longer-term tonic pain. The pain score was determined using the same parameters outlined above for the capsaicin test. Oligonucleotides or ASCF control (artificial cerebral spinal fluid) were administered for 7 days prior to testing by continuous infusion (1 micro grams/microlitres/h) via Alzet® minipumps attached to intrathecal catheters for spinal delivery. […] Statistical analysis was performed by a two way ANOVA with time and treatment as independent measures. Time: F(9,44)=8.264, p<0.05, Treatment: F(9,44)=7.254, p<0.05.
Antisense (AS) oligonucleotide or ASCF control (artificial cerebral spinal fluid) was administered for 7 days prior to testing by continuous infusion (0.45 micro grams/microlitres/h) via Alzet® minipumps attached to intrathecal catheters for spinal delivery. […] Statistical analysis was performed by a two way ANOVA with time and treatment as independent measures. Time: F(9,17)=7.985, p<0.05, Treatment: F(9,17)=2.541, p>0.05.

[6] = intrathecal 2 micro grams/microlitres/h for 72 h starting 6 days following nerve constriction

5′gac gtt atc cat ttt ggg g3′ (antisense GACGTTATCCATTTTGGGG; listed as DNA, chemistry not fully specified) [NK-1 receptor antisense oligonucleotide used in all experiments]
joint flexibility (difference between extension and flexion) compared to saline controls (NK-1 receptor [1]): significantly improved flexibility
joint flexibility compared to naïve animals (NK-1 receptor [1]): not significantly different
reversal of established mechanical allodynia, lower dose (NK-1 receptor [2]; intrathecal 0.45 micro grams/microlitres/h for 6 days starting 7 days following nerve constriction): had no effect in reversing the decrease in mechanical thresholds
prevention of mechanical allodynia, delivery to sacral rather than lumbar spinal cord (NK-1 receptor [2]; intrathecal 1 micro grams/microlitres/h from 2 days prior to surgery, catheter just less than 1 cm from lumbar level): failed to prevent the development of allodynia
mechanical response threshold, contralateral side (NK-1 receptor [2]; [6]): no effect
reversal of established mechanical allodynia, ipsilateral hind paw (NK-1 receptor [2]; [6]): reversed allodynia
mechanical response threshold, ipsilateral hind paw (prevention of mechanical allodynia) (NK-1 receptor [2]; intrathecal (lumbar) 1 micro grams/microlitres/h from 2 days prior to sciatic nerve constriction and throughout testing): did not show a decrease in their threshold of mechanical stimulation
SP-induced thermal hyperalgesia (thermal latency) (NK-1 receptor [3]; six days after start): further decrease in the response to SP
SP-induced thermal hyperalgesia (thermal latency) (NK-1 receptor [3]; three days after start): attenuated
magnitude of inflammation, measured as ankle circumference, first phase (NK-1 receptor [4]; first phase maximal at 48 h): less
magnitude of inflammation, measured as ankle circumference, second phase (NK-1 receptor [4]; second phase maximal at day 18): less
formalin-induced nociceptive responses, lower dose (NK-1 receptor [5]; intrathecal continuous infusion 0.45 micro grams/microlitres/h for 7 days prior to testing): without effect; also recorded: no attenuation
formalin-induced nociceptive scores (NK-1 receptor [5]; intrathecal continuous infusion 1 micro grams/microlitres/h for 7 days prior to testing): nociceptive scores are less
